IC50 data for 25 molecules are collected here from patent US20210009542A1 (Calico Life Sciences LLC, priority 2018, published 2021).

One may read the IC50 as the point on the concentration scale where inhibition reaches its midpoint.

Structures can show the parent of a compound that is named as a salt.

The target in this experiment is T1, His tagged PTPN2 (TC45) protein (Homo sapiens, UniProt P17706).
T1 construct: made in house
T1 sequence (P17706 with tags, fused parts or gaps isoform P17706-2): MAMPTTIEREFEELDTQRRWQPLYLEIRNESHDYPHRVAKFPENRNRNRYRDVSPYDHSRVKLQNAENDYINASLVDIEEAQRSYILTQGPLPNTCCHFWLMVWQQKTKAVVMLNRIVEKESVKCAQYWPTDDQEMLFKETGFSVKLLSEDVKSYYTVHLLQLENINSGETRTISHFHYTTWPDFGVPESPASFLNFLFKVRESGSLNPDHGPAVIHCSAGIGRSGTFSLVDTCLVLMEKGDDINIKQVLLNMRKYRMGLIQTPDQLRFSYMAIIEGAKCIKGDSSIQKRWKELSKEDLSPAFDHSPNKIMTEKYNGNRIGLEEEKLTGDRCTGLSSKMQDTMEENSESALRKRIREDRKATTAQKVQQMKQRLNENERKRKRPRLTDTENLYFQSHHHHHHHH
Put plainly: Mobility shift assay (MSA) for potency of PTPN2 inhibitors. Type of experiment: biochemical. The following applies: read-out: PTPN2 MSA IC50. The method, then: Compound activity was determined using in house His tagged PTPN2 (TC45) protein (SEQ ID NO: 1) in an in vitro enzymatic reaction. The enzymatic assay used to determine activity was a mobility shift assay using a LabChip EZ Reader by Caliper Life Sciences. The enzymatic reaction was carried out in assay buffer (50 mM HEPES pH 7.5, 1 mM EGTA, 10 mM EDTA, 0.01% Tween® 20, and 2 mM DTT). The compounds were dispensed on a white 384 well ProxiPlate™ (PerkinElmer Catalog #6008289) plate using the Labcyte Echo at varying concentrations (12 point, 1:3 dilution). The enzyme (at 0.5 nM) was incubated with compound for 10 minutes at room temperature. Then the substrate (phosphorylated insulin receptor probe sequence: ((OG488)-(NH—CH2—CH2—O—CH2—CH2—O—CH2—CO)-T-R-D-I-(PY)-E-T-D-Y-Y-R-K-K-NH2) (SEQ ID NO: 2) was added at […] to the plates and incubated for another 10 minutes at room temperature. Finally, a quench solution (water and 4-bromo-3-(2-oxo-2-propoxyethoxy)-5-(3-{[1-(phenylmethanesulfonyl)piperidin-4-yl]amino}phenyl)thiophene-2-carboxylic acid) was added to the plates, which were then run on the EZ Reader (excitation 488 nm, emission 530 nm) to measure % conversion (the amount of phosphorylated substrate which was de-phosphorylated by PTPN2). […] The % inhibition was then used to calculate the IC50 values.
As to `O=C1CN(c2c(O)cc3ccc(OCc4cn[nH]c4)cc3c2F)S(=O)(=O)N1` [Compound 133, 5-{1-fluoro-3-hydroxy-7-[(1H-pyrazol-4-yl)methoxy]naphthalen-2-yl}-1λ6,2,5-thiadiazolidine-1,1,3-trione], the IC50 is 0.001 to 0.01 µM.
Consider `CC(C)COc1ccc2cc(O)c(N3CC(=O)NS3(=O)=O)c(F)c2c1` [Compound 134, 5-[1-fluoro-3-hydroxy-7-(2-methylpropoxy)naphthalen-2-yl]-1λ^6,2,5-thiadiazolidine-1,1,3-trione], for which the IC50 is over 0.1 µM.
The value for `O=C1CN(c2c(O)cc3ccc(C(=O)NCC4CC4)cc3c2F)S(=O)(=O)N1` [Compound 136, N-(cyclopropylmethyl)-8-fluoro-6-hydroxy-7-(1,1,4-trioxo-1λ^6,2,5-thiadiazolidin-2-yl)naphthalene-2-carboxamide] was 0.001 to 0.01 µM.
Turning to `O=C1CN(c2c(O)cc3ccc(OCCNCCOC(F)(F)F)cc3c2F)S(=O)(=O)N1` [Compound 137, 5-[1-fluoro-3-hydroxy-7-(2-{[2-(trifluoromethoxy)ethyl]amino}ethoxy)naphthalen-2-yl]-1λ^6,2,5-thiadiazolidine-1,1,3-trione], the IC50 was 0.001 to 0.01 µM.
As to `COCCNCCOc1ccc2cc(O)c(N3CC(=O)NS3(=O)=O)c(F)c2c1` [Compound 138, 5-(1-fluoro-3-hydroxy-7-{2-[(2-methoxyethyl)amino]ethoxy}naphthalen-2-yl)-1λ^6,2,5-thiadiazolidine-1,1,3-trione], the IC50 is 0.001 to 0.01 µM.
`CNCCCc1ccc2cc(O)c(N3CC(=O)NS3(=O)=O)c(F)c2c1` [Compound 139, 5-{1-fluoro-3-hydroxy-7-[3-(methylamino)propyl]naphthalen-2-yl}-1λ^6,2,5-thiadiazolidine-1,1,3-trione]: the IC50 lay in the range of 0.001 to 0.01 µM.
Under `CCNCCCc1ccc2cc(O)c(N3CC(=O)NS3(=O)=O)c(F)c2c1` [Compound 140, 5-{7-[3-(ethylamino)propyl]-1-fluoro-3-hydroxynaphthalen-2-yl}-1λ^6,2,5-thiadiazolidine-1,1,3-trione] stands 0.001 to 0.01 µM.
For `O=C1CN(c2c(O)cc3ccc(OCCNC4CC4)cc3c2F)S(=O)(=O)N1` [Compound 142, 5-{7-[2-(cyclopropylamino)ethoxy]-1-fluoro-3-hydroxynaphthalen-2-yl}-1λ^6,2,5-thiadiazolidine-1,1,3-trione], the concentration for half-maximal inhibition (IC50) was 0.001 to 0.01 µM.
Under `CNCCOc1ccc2cc(O)c(N3CC(=O)NS3(=O)=O)c(F)c2c1` [Compound 143, 5-{1-fluoro-3-hydroxy-7-[2-(methylamino)ethoxy]naphthalen-2-yl}-1λ^6,2,5-thiadiazolidine-1,1,3-trione] stands 0.001 to 0.01 µM; under `CCNCCOc1ccc2cc(O)c(N3CC(=O)NS3(=O)=O)c(F)c2c1` [Compound 144, 5-{7-[2-(ethylamino)ethoxy]-1-fluoro-3-hydroxynaphthalen-2-yl}-1λ^6,2,5-thiadiazolidine-1,1,3-trione], 0.001 to 0.01 µM.
Under `CC(C)NCCOc1ccc2cc(O)c(N3CC(=O)NS3(=O)=O)c(F)c2c1` [Compound 145, 5-(1-fluoro-3-hydroxy-7-{2-[(propan-2-yl)amino]ethoxy}naphthalen-2-yl)-1λ^6,2,5-thiadiazolidine-1,1,3-trione] stands 0.01 to 0.1 µM; under `CCP(=O)(CC)CCCOc1ccc2cc(O)c(N3CC(=O)NS3(=O)=O)c(F)c2c1` [Compound 146, 5-{7-[3-(diethylphosphoryl)propoxy]-1-fluoro-3-hydroxynaphthalen-2-yl}-1λ^6,2,5-thiadiazolidine-1,1,3-trione], 0.001 to 0.01 µM.
As for `CC(C)CCNc1ccc2c(F)c(O)c(N3CC(=O)NS3(=O)=O)c(F)c2c1` [Compound 148, 5-{1,4-difluoro-3-hydroxy-7-[(3-methylbutyl)amino]naphthalen-2-yl}-1λ^6,2,5-thiadiazolidine-1,1,3-trione], the 50% inhibitory concentration (IC50) was in the range of 0.001 to 0.01 µM.
The value for `C[C@@H](O)CCOc1ccc2cc(O)c(N3CC(=O)NS3(=O)=O)c(F)c2c1` [Compound 149, 5-{1-fluoro-3-hydroxy-7-[(3R)-3-hydroxybutoxy]naphthalen-2-yl}-1λ^6,2,5-thiadiazolidine-1,1,3-trione] was 0.001 to 0.01 µM; that for `C[C@@H](O)CCCc1ccc2cc(O)c(N3CC(=O)NS3(=O)=O)c(F)c2c1` [Compound 151, 5-{1-fluoro-3-hydroxy-7-[(4R)-4-hydroxypentyl]naphthalen-2-yl}-1λ^6,2,5-thiadiazolidine-1,1,3-trione] was 0.001 to 0.01 µM; that for `C[C@H](O)CCCc1ccc2cc(O)c(N3CC(=O)NS3(=O)=O)c(F)c2c1` [Compound 153, 5-{1-fluoro-3-hydroxy-7-[(4S)-4-hydroxypentyl]naphthalen-2-yl}-1λ^6,2,5-thiadiazolidine-1,1,3-trione] was 0.001 to 0.01 µM.
Under `COCC1(CCOc2ccc3cc(O)c(N4CC(=O)NS4(=O)=O)c(F)c3c2)CC1` [Compound 160, 5-(1-fluoro-3-hydroxy-7-{2-[1-(methoxymethyl)cyclopropyl]ethoxy}naphthalen-2-yl)-1λ^6,2,5-thiadiazolidine-1,1,3-trione] stands 0.001 to 0.01 µM; under `O=C1CN(c2c(O)cc3ccc(CNCC4CC4)cc3c2F)S(=O)(=O)N1` [Compound 161, 5-(7-{[(cyclopropylmethyl)amino]methyl}-1-fluoro-3-hydroxynaphthalen-2-yl)-1λ^6,2,5-thiadiazolidine-1,1,3-trione], 0.01 to 0.1 µM.
The value for `CC(C)OCCNc1ccc2cc(O)c(N3CC(=O)NS3(=O)=O)c(F)c2c1` [Compound 172, 5-[1-fluoro-3-hydroxy-7-({2-[(propan-2-yl)oxy]ethyl}amino)naphthalen-2-yl]-1λ^6,2,5-thiadiazolidine-1,1,3-trione] was 0.001 to 0.01 µM; that for `O=C1CN(c2c(O)cc3ccc(CCO)cc3c2F)S(=O)(=O)N1` [Compound 175, 5-[1-fluoro-3-hydroxy-7-(2-hydroxyethyl)naphthalen-2-yl]-1λ^6,2,5-thiadiazolidine-1,1,3-trione, Ammonium Salt] was 0.01 to 0.1 µM.
With `O=C1CN(c2c(O)cc3ccc(OCCCn4cccn4)cc3c2F)S(=O)(=O)N1` [Compound 183, 5-{1-fluoro-3-hydroxy-7-[3-(H-pyrazol-1-yl)propoxy]naphthalen-2-yl}-1λ^6,2,5-thiadiazolidine-1,1,3-trione], the half-inhibitory concentration (IC50) is 0.001 to 0.01 µM.
The value for `O=C1CN(c2c(O)cc3ccc(CO)cc3c2F)S(=O)(=O)N1` [Compound 185, 5-[1-fluoro-3-hydroxy-7-(hydroxymethyl)naphthalen-2-yl]-1λ^6,2,5-thiadiazolidine-1,1,3-trione] was 0.001 to 0.01 µM.
Under `O=C1CN(c2c(O)cc3ccc(OCCn4cccn4)cc3c2F)S(=O)(=O)N1` [Compound 188, 5-{1-fluoro-3-hydroxy-7-[2-(1H-pyrazol-1-yl)ethoxy]naphthalen-2-yl}-1λ^6,2,5-thiadiazolidine-1,1,3-trione] stands 0.001 to 0.01 µM; under `O=C1CN(c2c(O)cc3ccc(C4CCCO4)cc3c2F)S(=O)(=O)N1` (stereo not shown) [Compound 190], 0.001 to 0.01 µM.
As for `O=C1CN(c2c(O)cc3ccc(C4CCCNC4)cc3c2F)S(=O)(=O)N1` (stereo not shown) [Compound 191, 5-[1-fluoro-3-hydroxy-7-(piperidin-3-yl)naphthalen-2-yl]-1λ^6,2,5-thiadiazolidine-1,1,3-trione], the IC50 fell in the range of 0.001 to 0.01 µM.
